Source: EP0157637A2, “Heterocyclic compounds” (THE WELLCOME FOUNDATION LIMITED, priority 1984, dated 1985)
Where two headings read alike, the source gives them in different places.

Legend:
[1] = system: Eimeria tenella; experiment: in vivo anticoccidial activity against Eimeria tenella; details: Concentration 400 ppm, cleared/total
Procedure: The in vivo activity of two compounds of the present invention and a compound disclosed in US Patent No. 4189485 were determined against Eimeria tenella by the method disclosed in European Patent No. 0021293.

[2] = system: rats; experiment: maximal electroshock test (MES), anticonvulsant activity in rats; assay type: in vivo; details: for ED50: Rattus norvegicus
Procedure: The anticonvulsant activity of certain compounds of the present invention was determined by a standard maximal electroshock test (MES); that described by L.A. Woodbury and V.D. Davenport, Arch. Int. Pharmacodyn., 1952, 92, 97.

[3] = LD50 in the rat; details: in vivo, po, approximate
[4] = ip, rats, i.p., read-out: MES ED50 (mg/kg) i.p.
[5] = po, rats, p.o., read-out: MES ED50 (mg/kg) p.o.

SMILES | ED50 [2, 4] [mg/kg] | ED50 [2, 5] [mg/kg] | other results
CN(C)c1ncnc2c1ncn2Cc1ccccc1F [Compound 2, 6-dimethylamino-9-(2-fluorobenzyl)-9H-purine] | 8.8 ± 1.7 |  | E.tenella cleared [1]: 0/5
OCNc1ncnc2c1ncn2Cc1ccccc1F [Compound 29, 9-(2-Fluorobenzyl)-6-hydroxymethylamino-9H-purine] | 4 |  | 
Nc1ncnc2c1ncn2Cc1cc(F)ccc1F [Compound 28, 6-amino-9-(2,5-difluorobenzyl)-9H-purine] | 5 |  | 
Fc1ccccc1Cn1cnc2c(NC3CCCC3)ncnc21 [Compound 11, 6-cyclopentylamino-9-(2-fluorobenzyl)-9H-purine] | 8 ± 1 |  | 
Nc1ncnc2c1ncn2Cc1ccccc1F [Compound 16, 6-Amino-9-(2-fluorobenzyl)-9H-purine] | 2.4 ± 0.6 | 2.2 ± 0.4 | 
CNc1ncnc2c1ncn2Cc1cc(F)ccc1F [Compound 15, 9-(2,5-Difluorobenzyl)-6-methylamino-9H-purine] | 4 ± 0.6 | 7 ± 1 | 
O=C1NC(=O)C(c2ccccc2)(c2ccccc2)N1 [phenytoin (Dilantin), 5,5-diphenylhydantoin, reference compound] | 10 ± 2 | 20 ± 3 | 
COCNc1ncnc2c1ncn2Cc1ccccc1F [Compound 31, 9-(2-Fluorobenzyl)-6-methoxymethylamino-9H-purine] |  |  | MES, % at 6.25mg/kg ([2]; rats, 6.25mg/kg, printed in the i.p. column in place of an ED50): (17% at 6.25mg/kg)
CCCNc1ncnc2c1ncn2Cc1ccccc1F [Compound 9, 9-(2-fluorobenzyl)-6-propylamino-9H-purine] | 5.1 ± 0.5 | 4.6 ± 1 | 
CCN(C)c1ncnc2c1ncn2Cc1ccccc1F [Compound 8] | 2.9 ± 0.3 | 6 ± 0.5 | 
CCN(CC)c1ncnc2c1ncn2Cc1ccccc1F [Compound 10, 6-diethylamino-9-(2-fluorobenzyl)-9H-purine] | 4.2 ± 0.5 | 5.9 ± 0.6 | 
Fc1ccccc1Cn1cnc2c(NCC3CC3)ncnc21 [Compound 6, 6-cyclopropylmethylamino-9-(2-fluorobenzyl)-9H-purine] | 4.3 ± 0.9 | 6.3 ± 1 | 
CCNc1ncnc2c1ncn2Cc1ccccc1F [Compound 4, 6-ethylamino-9-(2-fluorobenzyl)-9H-purine] | 4.9 ± 0.5 |  | 
CC(C)Nc1ncnc2c1ncn2Cc1ccccc1F [Compound 5, 9-(2-fluorobenzyl)-6-isopropylamino-9H-purine] | 5.8 ± 0.6 |  | 
CNc1ncnc2c1ncn2Cc1ccccc1F [Compound 1, 9-(2-Fluorobenzyl)-6-methylamino-9H-purine] |  |  | LD50 [3]: ~1000 mg/kg; E.tenella cleared [1]: 2/5; ED50 ([2]; ip, read-out: MES ED50 (mg/kg) i.p.): 1.7 ± 0.4 mg/kg; ED50 ([2]; po, read-out: MES ED50 (mg/kg) p.o.): 2.5 ± 0.4 mg/kg
CN(c1ncnc2c1ncn2Cc1ccccc1F)C1CC1 [Compound 7, 9-(2-fluorobenzyl)-6-(N-methylcyclopropylamino)-9H-purine] | 6.8 ± 0.8 |  | 
CN(C)c1ncnc2c1ncn2Cc1c(F)cccc1F [Compound 14, ^g-(2,6-difluorobenzyl)-6-dimethylamino-9H-purine] | 2.2 ± 0.2 | 3.8 ± 0.6 | 
Fc1cccc(F)c1Cn1cnc2c(NC3CC3)ncnc21 [Compound 12, 6-cyclopropylamino-9-(2,6-difluorobenzyl)-9H-purine] | 4 | 12.5 | 
CNc1ncnc2c1ncn2Cc1c(F)cccc1F [Compound 13] | 2 |  | 
COCN(C)c1ncnc2c1ncn2Cc1ccccc1F [Compound 30, 9-(2-Fluorobenzyl)-6-(N-methoxymethyl-N-methylamino)-9H-purine] | 5 |  | 
Nc1ncnc2c1ncn2Cc1c(F)cccc1F [Compound 27, 6-amino-9-(2,6-difluorobenzyl)-9H-purine] | 9 |  | 
Fc1ccccc1Cn1cnc2c(NC3CC3)ncnc21 [Compound 3, 6-cyclopropylamino-9-(2-fluorobenzyl)-9H-purine] | 5 ± 0.4 | 7.8 ± 0.8 | 
